The text below walks through data of US20220389061A1, “IMMUNOMODULATORS” (priority 2019, published 2022).

Starred links: 1 amine or outer side, 2 acyl side, 3 side chain; linkers in the order of their positions; H or OH if unused. Positions of bridges follow the written chain, without caps; N, C: chain ends. Non-standard residues stand in square brackets, D forms with d. Residues, ends and D or L forms follow the SMILES beside them. Groups on a side chain read outwards from the residue. *: point of attachment. Trp(1-CH2CO2Me) = COC(=O)Cn1cc(C[C@H](N)C(=O)O)c2ccccc21; Trp(1-CH2COOH) = N[C@@H](Cc1cn(CC(=O)O)c2ccccc12)C(=O)O; Benzofuran(2-CO) = O=C(c1cc2ccccc2o1)*; X8 = NC(=O)c1c[nH]c2c(NC(=S)*)cccc12; 2Naphthoyl = O=C(c1ccc2ccccc2c1)*; X31 = S=C(Nc1cccc2c(Cl)c[nH]c12)*; Hyp = O=C(O)[C@@H]1C[C@@H](O)CN1; X14 = Cc1c[nH]c2c(NC(=S)*)cccc12; X72 = COc1ccc2nccc(C(=O)*)c2c1; NMeNle = CCCC[C@H](NC)C(=O)O; X4 = S=C(Nc1ccc2c(c1)OCCO2)*; X12 = S=C(Nc1ccc2ccccc2c1)*; X54 = S=C(Nc1cccc2ncccc12)*; X59 = S=C(Nc1ccc2nsnc2c1)*; X82 = S=C(Nc1cccc2nsnc12)*; X93 = c1cc2c(c(N*)c1)CCCC2; X48 = O=C(c1ccc2ccoc2c1)*; NMeA = CN[C@@H](C)C(=O)O; Dab = NCC[C@H](N)C(=O)O; Dap = NC[C@H](N)C(=O)O; CO = O=C([*:1])[*:2]

T1 sequence (Q9NZQ7 18-239): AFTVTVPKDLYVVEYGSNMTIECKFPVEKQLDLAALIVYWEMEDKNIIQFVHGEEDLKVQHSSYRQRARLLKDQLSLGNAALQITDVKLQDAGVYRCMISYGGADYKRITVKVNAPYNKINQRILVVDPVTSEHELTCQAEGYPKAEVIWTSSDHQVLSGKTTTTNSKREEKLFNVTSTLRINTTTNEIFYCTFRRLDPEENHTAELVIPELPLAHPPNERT

One experiment addresses T1, PD-1/PD-L1 (Homo sapiens, UniProt Q9NZQ7).
T1 construct: TVMV protease site linker (C); made in house; host or cells: HEK293T cells
In words: PD-1/PD-L1 Homogenous Time-Resolved Fluorescence (HTRF) binding assay.
Details: not given
The procedure, abridged: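 Compounds preincubated 15 min with PD-L1-His (10 nM final), then PD-1-Ig (20 nM final) added for 15 min in dPBS with 0.1% BSA, 0.05% Tween-20. Detection by Eu-cryptate anti-Ig (1 nM) and APC anti-His (20 nM) HTRF.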
In the case of `CCCC[C@H]1C(=O)N(C)[C@@H](CCCC)C(=O)N[C@@H](CC(C)C)C(=O)N[C@H](C(=O)NCC(N)=O)CSCC(=O)N[C@@H](Cc2ccc(O)cc2)C(=O)N(C)[C@@H](C)C(=O)N[C@@H](CC(N)=O)C(=O)N2CCC[C@H]2C(=O)N[C@@H](CNC(=O)Nc2cccc3c2CCCC3)C(=O)N[C@@H](CC(C)C)C(=O)N2C[C@H](O)C[C@H]2C(=O)N[C@@H](Cc2c[nH]c3ccccc23)C(=O)N[C@@H](CCNC(=O)Nc2cccc3c2CCCC3)C(=O)N[C@@H](Cc2cn(CC(=O)O)c3ccccc23)C(=O)N1C` [Example 3015] ({CH2CO}-Y[NMeA]NP[Dap]([CO-X93])L[Hyp]W[Dab]([CO-X93])[Trp(1-CH2COOH)][NMeNle][NMeNle]LCG-NH2; thioether N-14), the IC50 turned out to be 0.7 nM.

Still in this experiment, the particulars now being: PD-L1-His 10 nM pre-incubated with inhibitor, PD-1-Ig 20 nM; read-out: HTRF IC50.
Regarding `CCCC[C@H]1C(=O)N(C)[C@@H](CCCC)C(=O)N[C@@H](CC(C)C)C(=O)N[C@H](C(=O)NCC(N)=O)CSCC(=O)N[C@@H](Cc2ccc(O)cc2)C(=O)N(C)[C@@H](C)C(=O)N[C@@H](CC(N)=O)C(=O)N2CCC[C@H]2C(=O)N[C@@H](CNC(=S)Nc2ccc3c(c2)OCCO3)C(=O)N[C@@H](CC(C)C)C(=O)N2C[C@H](O)C[C@H]2C(=O)N[C@@H](Cc2c[nH]c3ccccc23)C(=O)N[C@@H](CCNC(=S)Nc2ccc3c(c2)OCCO3)C(=O)N[C@@H](Cc2cn(CC(=O)O)c3ccccc23)C(=O)N1C` [Example 3007] ({CH2CO}-Y[NMeA]NP[Dap](X4)L[Hyp]W[Dab](X4)[Trp(1-CH2COOH)][NMeNle][NMeNle]LCG-NH2; thioether N-14), the IC50 turned out to be 2.6 nM.

For the compound `CCCC[C@H]1C(=O)N(C)[C@@H](CCCC)C(=O)N[C@@H](CC(C)C)C(=O)N[C@H](C(=O)NCC(N)=O)CSCC(=O)N[C@@H](Cc2ccc(O)cc2)C(=O)N(C)[C@@H](C)C(=O)N[C@@H](CC(N)=O)C(=O)N2CCC[C@H]2C(=O)N[C@@H](CNC(=S)Nc2ccc3nsnc3c2)C(=O)N[C@@H](CC(C)C)C(=O)N2C[C@H](O)C[C@H]2C(=O)N[C@@H](Cc2c[nH]c3ccccc23)C(=O)N[C@@H](CCNC(=S)Nc2ccc3nsnc3c2)C(=O)N[C@@H](Cc2cn(CC(=O)O)c3ccccc23)C(=O)N1C` [Example 3008] ({CH2CO}-Y[NMeA]NP[Dap](X59)L[Hyp]W[Dab](X59)[Trp(1-CH2COOH)][NMeNle][NMeNle]LCG-NH2; thioether N-14), the IC50 is 6.4 nM.

As for `CCCC[C@H]1C(=O)N(C)[C@@H](CCCC)C(=O)N[C@@H](CC(C)C)C(=O)N[C@H](C(=O)NCC(N)=O)CSCC(=O)N[C@@H](Cc2ccc(O)cc2)C(=O)N(C)[C@@H](C)C(=O)N[C@@H](CC(N)=O)C(=O)N2CCC[C@H]2C(=O)N[C@@H](CNC(=O)c2ccc3ccccc3c2)C(=O)N[C@@H](CC(C)C)C(=O)N2C[C@H](O)C[C@H]2C(=O)N[C@@H](Cc2c[nH]c3ccccc23)C(=O)N[C@@H](CCNC(=O)c2ccc3ccccc3c2)C(=O)N[C@@H](Cc2cn(CC(=O)OC)c3ccccc23)C(=O)N1C` [Example 3009] ({CH2CO}-Y[NMeA]NP[Dap](2Naphthoyl)L[Hyp]W[Dab](2Naphthoyl)[Trp(1-CH2CO2Me)][NMeNle][NMeNle]LCG-NH2; thioether N-14), the IC50 is 9 nM.

Regarding `CCCC[C@H]1C(=O)N(C)[C@@H](CCCC)C(=O)N[C@@H](CC(C)C)C(=O)N[C@H](C(=O)NCC(N)=O)CSCC(=O)N[C@@H](Cc2ccc(O)cc2)C(=O)N(C)[C@@H](C)C(=O)N[C@@H](CC(N)=O)C(=O)N2CCC[C@H]2C(=O)N[C@@H](CNC(=O)c2ccnc3ccc(OC)cc23)C(=O)N[C@@H](CC(C)C)C(=O)N2C[C@H](O)C[C@H]2C(=O)N[C@@H](Cc2c[nH]c3ccccc23)C(=O)N[C@@H](CCNC(=O)c2ccnc3ccc(OC)cc23)C(=O)N[C@@H](Cc2cn(CC(=O)OC)c3ccccc23)C(=O)N1C` [Example 3010] ({CH2CO}-Y[NMeA]NP[Dap](X72)L[Hyp]W[Dab](X72)[Trp(1-CH2CO2Me)][NMeNle][NMeNle]LCG-NH2; thioether N-14), the IC50 came out at 7.8 nM.

In the case of `CCCC[C@H]1C(=O)N(C)[C@@H](CCCC)C(=O)N[C@@H](CC(C)C)C(=O)N[C@H](C(=O)NCC(N)=O)CSCC(=O)N[C@@H](Cc2ccc(O)cc2)C(=O)N(C)[C@@H](C)C(=O)N[C@@H](CC(N)=O)C(=O)N2CCC[C@H]2C(=O)N[C@@H](CNC(=O)c2ccc3ccoc3c2)C(=O)N[C@@H](CC(C)C)C(=O)N2C[C@H](O)C[C@H]2C(=O)N[C@@H](Cc2c[nH]c3ccccc23)C(=O)N[C@@H](CCNC(=O)c2ccc3ccoc3c2)C(=O)N[C@@H](Cc2cn(CC(=O)OC)c3ccccc23)C(=O)N1C` [Example 3011] ({CH2CO}-Y[NMeA]NP[Dap](X48)L[Hyp]W[Dab](X48)[Trp(1-CH2CO2Me)][NMeNle][NMeNle]LCG-NH2; thioether N-14), the IC50 came out at 8.2 nM.

As to `CCCC[C@H]1C(=O)N(C)[C@@H](CCCC)C(=O)N[C@@H](CC(C)C)C(=O)N[C@H](C(=O)NCC(N)=O)CSCC(=O)N[C@@H](Cc2ccc(O)cc2)C(=O)N(C)[C@@H](C)C(=O)N[C@@H](CC(N)=O)C(=O)N2CCC[C@H]2C(=O)N[C@@H](CNC(=O)c2cc3ccccc3o2)C(=O)N[C@@H](CC(C)C)C(=O)N2C[C@H](O)C[C@H]2C(=O)N[C@@H](Cc2c[nH]c3ccccc23)C(=O)N[C@@H](CCNC(=O)c2cc3ccccc3o2)C(=O)N[C@@H](Cc2cn(CC(=O)OC)c3ccccc23)C(=O)N1C` [Example 3012] ({CH2CO}-Y[NMeA]NP[Dap](Benzofuran(2-CO))L[Hyp]W[Dab](Benzofuran(2-CO))[Trp(1-CH2CO2Me)][NMeNle][NMeNle]LCG-NH2; thioether N-14), the IC50 was found to be 5.3 nM.

On to `CCCC[C@H]1C(=O)N(C)[C@@H](CCCC)C(=O)N[C@@H](CC(C)C)C(=O)N[C@H](C(=O)NCC(N)=O)CSCC(=O)N[C@@H](Cc2ccc(O)cc2)C(=O)N(C)[C@@H](C)C(=O)N[C@@H](CC(N)=O)C(=O)N2CCC[C@H]2C(=O)N[C@@H](CNC(=S)Nc2ccc3ccccc3c2)C(=O)N[C@@H](CC(C)C)C(=O)N2C[C@H](O)C[C@H]2C(=O)N[C@@H](Cc2c[nH]c3ccccc23)C(=O)N[C@@H](CCNC(=S)Nc2ccc3ccccc3c2)C(=O)N[C@@H](Cc2cn(CC(=O)O)c3ccccc23)C(=O)N1C` [Example 3014] ({CH2CO}-Y[NMeA]NP[Dap](X12)L[Hyp]W[Dab](X12)[Trp(1-CH2COOH)][NMeNle][NMeNle]LCG-NH2; thioether N-14), for which the IC50 amounted to 4.9 nM.

On to `CCCC[C@H]1C(=O)N(C)[C@@H](CCCC)C(=O)N[C@@H](CC(C)C)C(=O)N[C@H](C(=O)NCC(N)=O)CSCC(=O)N[C@@H](Cc2ccc(O)cc2)C(=O)N(C)[C@@H](C)C(=O)N[C@@H](CC(N)=O)C(=O)N2CCC[C@H]2C(=O)N[C@@H](CNC(=S)Nc2cccc3nsnc23)C(=O)N[C@@H](CC(C)C)C(=O)N2C[C@H](O)C[C@H]2C(=O)N[C@@H](Cc2c[nH]c3ccccc23)C(=O)N[C@@H](CCN)C(=O)N[C@@H](Cc2cn(CC(=O)O)c3ccccc23)C(=O)N1C` [Example 3016] ({CH2CO}-Y[NMeA]NP[Dap](X82)L[Hyp]W[Dab][Trp(1-CH2COOH)][NMeNle][NMeNle]LCG-NH2; thioether N-14), for which the IC50 was found to be 0.6 nM.

As for `CCCC[C@H]1C(=O)N(C)[C@@H](CCCC)C(=O)N[C@@H](CC(C)C)C(=O)N[C@H](C(=O)NCC(N)=O)CSCC(=O)N[C@@H](Cc2ccc(O)cc2)C(=O)N(C)[C@@H](C)C(=O)N[C@@H](CC(N)=O)C(=O)N2CCC[C@H]2C(=O)N[C@@H](CNC(=S)Nc2cccc3c(C(N)=O)c[nH]c23)C(=O)N[C@@H](CC(C)C)C(=O)N2C[C@H](O)C[C@H]2C(=O)N[C@@H](Cc2c[nH]c3ccccc23)C(=O)N[C@@H](CCN)C(=O)N[C@@H](Cc2cn(CC(=O)O)c3ccccc23)C(=O)N1C` [Example 3017] ({CH2CO}-Y[NMeA]NP[Dap](X8)L[Hyp]W[Dab][Trp(1-CH2COOH)][NMeNle][NMeNle]LCG-NH2; thioether N-14), the IC50 is 3.6 nM.

For `CCCC[C@H]1C(=O)N(C)[C@@H](CCCC)C(=O)N[C@@H](CC(C)C)C(=O)N[C@H](C(=O)NCC(N)=O)CSCC(=O)N[C@@H](Cc2ccc(O)cc2)C(=O)N(C)[C@@H](C)C(=O)N[C@@H](CC(N)=O)C(=O)N2CCC[C@H]2C(=O)N[C@@H](CNC(=S)Nc2cccc3ncccc23)C(=O)N[C@@H](CC(C)C)C(=O)N2C[C@H](O)C[C@H]2C(=O)N[C@@H](Cc2c[nH]c3ccccc23)C(=O)N[C@@H](CCN)C(=O)N[C@@H](Cc2cn(CC(=O)O)c3ccccc23)C(=O)N1C` [Example 3018] ({CH2CO}-Y[NMeA]NP[Dap](X54)L[Hyp]W[Dab][Trp(1-CH2COOH)][NMeNle][NMeNle]LCG-NH2; thioether N-14), the IC50 was 3.8 nM.

Regarding `CCCC[C@H]1C(=O)N(C)[C@@H](CCCC)C(=O)N[C@@H](CC(C)C)C(=O)N[C@H](C(=O)NCC(N)=O)CSCC(=O)N[C@@H](Cc2ccc(O)cc2)C(=O)N(C)[C@@H](C)C(=O)N[C@@H](CC(N)=O)C(=O)N2CCC[C@H]2C(=O)N[C@@H](CNC(=S)Nc2cccc3c(Cl)c[nH]c23)C(=O)N[C@@H](CC(C)C)C(=O)N2C[C@H](O)C[C@H]2C(=O)N[C@@H](Cc2c[nH]c3ccccc23)C(=O)N[C@@H](CCNC(=S)Nc2cccc3c(Cl)c[nH]c23)C(=O)N[C@@H](Cc2cn(CC(=O)O)c3ccccc23)C(=O)N1C` [Example 3019] ({CH2CO}-Y[NMeA]NP[Dap](X31)L[Hyp]W[Dab](X31)[Trp(1-CH2COOH)][NMeNle][NMeNle]LCG-NH2; thioether N-14), the IC50 was 3.3 nM.

In the case of `CCCC[C@H]1C(=O)N(C)[C@@H](CCCC)C(=O)N[C@@H](CC(C)C)C(=O)N[C@H](C(=O)NCC(N)=O)CSCC(=O)N[C@@H](Cc2ccc(O)cc2)C(=O)N(C)[C@@H](C)C(=O)N[C@@H](CC(N)=O)C(=O)N2CCC[C@H]2C(=O)N[C@@H](CNC(=S)Nc2cccc3c(C)c[nH]c23)C(=O)N[C@@H](CC(C)C)C(=O)N2C[C@H](O)C[C@H]2C(=O)N[C@@H](Cc2c[nH]c3ccccc23)C(=O)N[C@@H](CCN)C(=O)N[C@@H](Cc2cn(CC(=O)O)c3ccccc23)C(=O)N1C` [Example 3020] ({CH2CO}-Y[NMeA]NP[Dap](X14)L[Hyp]W[Dab][Trp(1-CH2COOH)][NMeNle][NMeNle]LCG-NH2; thioether N-14), the IC50 was determined as 2.5 nM.
